In patent US20250228239A1, “MOLECULES HAVING PESTICIDAL UTILITY, AND INTERMEDIATES, COMPOSITIONS, AND PROCESSES, RELATED THERETO” (priority 2024, published 2025):
Read-outs that look alike come from different tables or passages of the source.

What was measured:
Assay type in all cases: in vivo
[1] = tested on: Beet Armyworm (Spodoptera exigua, LAPHEG); experiment: Bioassays on Beet Armyworm (BAW), 128-well diet tray assay; details: Spodoptera exigua
Procedure, shortened: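 Diet-overlay assay: 50 μg/cm^2 compound applied in 90:10 acetone-water to artificial diet, allowed to dry, then infested with 1–5 L2 larvae/well; 8 wells/compound; covered, vented; 25° C., 14:10 L:D, 5–7 d; % mortality per well, averaged.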

[2] = tested on: Yellow Fever Mosquito (Aedes aegypti, AEDSAE); details: for YFM rating: Table ABC / ABC-DP rating
Procedure, shortened: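 Mortality after 3 days at room temperature is the read-out, scored well by well and converted to a rating. Test molecules came from 4000 ppm stocks in DMSO, further diluted in 90:10 water/acetone, and were exposed to roughly 1-day-old larvae suspended in liver-powder water.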

[3] = tested on: Cabbage Looper (Trichoplusia ni, TRIPNI); experiment: Bioassays on Cabbage Looper (CL), 128-well diet tray assay; details: Trichoplusia ni
Procedure, shortened: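 Diet tray, 2nd instar, 1–5 larvae/well; 50 μg/cm^2 compound surface-applied (acetone:water 90:10), dried; 8 wells/treatment; 25° C, 14:10 L:D, 5–7 d; % mortality, mean of 8 wells.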

[4] = Table ABC: Biological Results, species BAW, read-out: BAW
[5] = Table ABC: Biological Results, species YFM
[6] = Table ABC: Biological Results, species CL, read-out: CL
[7] = Beet Armyworm, rating class, read-out: BAW
[8] = Yellow Fever Mosquito, rating class
[9] = Cabbage Looper, rating class, read-out: CL
[10] = Beet Armyworm, Table ABC / ABC-DP rating, read-out: BAW rating
[11] = Cabbage Looper, Table ABC / ABC-DP rating, read-out: CL rating

CCCCC(=O)Nc1c(F)ccc(NC(=O)c2cc(NC(=O)[C@H]3[C@H](c4ccc(F)c(C(F)(F)F)c4)C3(Cl)Cl)ccc2Cl)c1F [F1372, 2-Chloro-5-((1R,3R)-2,2-dichloro-3-(4-fluoro-3-(trifluoromethyl)phenyl)cyclopropane-1-carboxamido)-N-(2,4-difluoro-3-pentanamidophenyl)benzamide] was tested, and the pest or weed control at 50 µg/cm2 [1, 4] was 50 to 100%, the YFM [2, 5] was “A (80–100)” and the pest or weed control at 50 µg/cm2 [3, 6] was 50 to 100%.

O=C(Nc1ccc(F)c(NC(=O)C(F)(F)F)c1F)c1cc(NC(=O)[C@H]2[C@H](c3ccc(Cl)c(Br)c3)C2(Cl)Cl)ccc1Cl (relative stereo) [F1358, trans-5-(3-(3-Bromo-4-chlorophenyl)-2,2-dichlorocyclopropane-1-carboxamido)-2-chloro-N-(2,4-difluoro-3-(2,2,2-trifluoroacetamido)phenyl)benzamide] was tested, and the pest or weed control at 50 µg/cm2 [1, 4] was 50 to 100%, the YFM [2, 5] was “A (80–100)” and the pest or weed control at 50 µg/cm2 [3, 6] was 50 to 100%.

For Cc1cc(NCc2ccc(OC(F)(F)F)cc2)ccc1NC(=O)c1cc(NC(=O)[C@H]2[C@H](c3cc(Cl)cc(Cl)c3)C2(Cl)Cl)ccc1Cl (relative stereo) [F1117, trans-2-Chloro-5-(2,2-dichloro-3-(3,5-dichlorophenyl)cyclopropane-1-carboxamido)-N-(2-methyl-4-((4-(trifluoromethoxy)benzyl)amino)phenyl)benzamide], the pest or weed control at 50 µg/cm2 [1, 4] was 50 to 100%, the YFM [2, 5] was “A (80–100)” and the pest or weed control at 50 µg/cm2 [3, 6] was 50 to 100%.

In the case of CC(C)C(=O)Nc1c(F)ccc(NC(=O)c2cc(NC(=O)[C@H]3[C@H](c4ccc(Cl)c(Cl)c4)C3(Cl)Cl)ccc2Cl)c1F [F1606, 2-Chloro-5-((1R,3R)-2,2-dichloro-3-(3,4-dichlorophenyl)cyclopropane-1-carboxamido)-N-(2,4-difluoro-3-isobutyramidophenyl)benzamide], the pest or weed control at 50 µg/cm2 [1, 7] is reported as 50 to 100%, the YFM [2, 8] is reported as “A (80–100)” and the pest or weed control at 50 µg/cm2 [3, 9] is reported as 50 to 100%.

O=C(NN=Cc1cc(F)ccc1F)c1cc(NC(=O)[C@H]2[C@H](c3cc(Cl)cc(Cl)c3)C2(Cl)Cl)ccc1Cl (relative stereo) [F3003, trans-2,2-Dichloro-N-(4-chloro-3-(2-(2,5-difluorobenzylidene)hydrazine-1-carbonyl)phenyl)-3-(3,5-dichlorophenyl)cyclopropane-1-carboxamide] was tested, and the mortality at 50 µg/cm2 ([1]; 168 h, second instar larvae, 50 μg/cm^2 of test molecule on artificial diet, 25° C., five to seven days, average of eight wells, read-out: BAW % Control (or Mortality) rating) was 50 to 100%, the pest or weed control at 50 µg/cm2 [1, 10] was 50 to 100% and the YFM rating ([2]; Yellow Fever Mosquito) was “A (80–100)”. For the same molecule, the “YFM % Control (or Mortality) rating” value ([2]; about 1 day-old larvae, 4000 ppm master solution diluted with 90:10 water/acetone, 15 μL per well plus 220 μL larval mixture, 3 days, mortality) was “A (80–100)”, the mortality at 50 µg/cm2 ([3]; 168 h, second instar larvae, 50 μg/cm^2 of test molecule on artificial diet, 25° C., five to seven days, average of eight wells, read-out: CL % Control (or Mortality) rating) was 50 to 100% and the pest or weed control at 50 µg/cm2 [3, 11] was 50 to 100%.

For COc1ccc(CNc2c(F)ccc(NC(=O)c3cc(NC(=O)[C@H]4[C@H](c5ccc(F)c(C(F)(F)F)c5)C4(Cl)Cl)ccc3Cl)c2F)cc1 (relative stereo) [F1096, trans-2-Chloro-5-(2,2-dichloro-3-(4-fluoro-3-(trifluoromethyl)phenyl)cyclopropane-1-carboxamido)-N-(2,4-difluoro-3-((4-methoxybenzyl)amino)phenyl)benzamide], the pest or weed control at 50 µg/cm2 [1, 4] was 50 to 100%, the YFM [2, 5] was “A (80–100)” and the pest or weed control at 50 µg/cm2 [3, 6] was 50 to 100%.

In the case of O=C(NCC(F)(F)c1ccccc1)c1cc(NC(=O)[C@H]2[C@H](c3cc(Cl)cc(Cl)c3)C2(Cl)Cl)cc(F)c1Cl (relative stereo) [F2091, trans-2-Chloro-5-(2,2-dichloro-3-(3,5-dichlorophenyl)cyclopropane-1-carboxamido)-N-(2,2-difluoro-2-phenylethyl)-3-fluorobenzamide], the pest or weed control at 50 µg/cm2 [1, 10] is reported as 50 to 100%, the YFM rating ([2]; Yellow Fever Mosquito) is reported as “A (80–100)” and the pest or weed control at 50 µg/cm2 [3, 11] is reported as 50 to 100%.

With CCOC(C)(C)C(=O)Nc1c(F)ccc(NC(=O)c2cc(NC(=O)[C@H]3[C@H](c4ccc(Cl)c(Cl)c4)C3(Cl)Cl)ccc2Cl)c1F [F1605, 2-Chloro-5-((1R,3R)-2,2-dichloro-3-(3,4-dichlorophenyl)cyclopropane-1-carboxamido)-N-(3-(2-ethoxy-2-methylpropanamido)-2,4-difluorophenyl)benzamide] the pest or weed control at 50 µg/cm2 [1, 7] was 50 to 100%, the YFM [2, 8] was “A (80–100)” and the pest or weed control at 50 µg/cm2 [3, 9] was 50 to 100%.

O=C(Nc1ccc(F)cc1F)c1cc(NC(=O)[C@H]2[C@H](c3ccc(F)c(C(F)(F)F)c3)C2(Cl)Cl)c(F)cc1Cl [F1727, 2-Chloro-5-((1R,3R)-2,2-dichloro-3-(4-fluoro-3-(trifluoromethyl)phenyl)cyclopropane-1-carboxamido)-N-(2,4-difluorophenyl)-4-fluorobenzamide] was tested, and the pest or weed control at 50 µg/cm2 [1, 7] was 50 to 100%, the YFM [2, 8] was “A (80–100)” and the pest or weed control at 50 µg/cm2 [3, 9] was 50 to 100%.

For O=C(Nc1ccc(F)cc1F)c1cc(NC(=O)C2C(c3cc(Cl)cc(S(F)(F)(F)(F)F)c3)C2(Cl)Cl)ccc1Cl (stereo not drawn) [F1233, cis-2-Chloro-5-(2,2-dichloro-3-(3-chloro-5-(pentafluoro-λ^6-sulfanyl)phenyl)cyclopropane-1-carboxamido)-I-(2,4-difluorophenyl)benzamide], the pest or weed control at 50 µg/cm2 [1, 4] was 50 to 100%, the YFM [2, 5] was “A (80–100)” and the pest or weed control at 50 µg/cm2 [3, 6] was 50 to 100%.

In the case of O=C(Nc1c(F)ccc(NC(=O)C(F)F)c1F)c1cc(NC(=O)[C@H]2[C@H](c3cc(Cl)c(Cl)c(Cl)c3)C2(Cl)Cl)ccc1F [F1555, 5-((1R,3R)-2,2-Dichloro-3-(3,4,5-trichlorophenyl)cyclopropane-1-carboxamido)-N-(3-(2,2-difluoroacetamido)-2,6-difluorophenyl)-2-fluorobenzamide], the pest or weed control at 50 µg/cm2 [1, 7] is reported as 50 to 100%, the YFM [2, 8] is reported as “A (80–100)” and the pest or weed control at 50 µg/cm2 [3, 9] is reported as 50 to 100%.

For O=C(Nc1ccc(F)cc1F)c1cc(NC(=O)[C@H]2[C@H](c3c(F)c(F)c(F)c(F)c3F)C2(Cl)Cl)ccc1Cl (relative stereo) [F1009, trans-2-Chloro-5-(2,2-dichloro-3-(perfluorophenyl)cyclopropane-1-carboxamido)-N-(2,4-difluorophenyl)benzamide], the pest or weed control at 50 µg/cm2 [1, 4] was 50 to 100%, the YFM [2, 5] was “A (80–100)” and the pest or weed control at 50 µg/cm2 [3, 6] was 50 to 100%.

O=C(CC1CC1)Nc1c(F)ccc(NC(=O)c2cc(NC(=O)[C@H]3[C@H](c4cc(Cl)c(Cl)c(Cl)c4)C3(Cl)Cl)ccc2Cl)c1F [F1653, 2-Chloro-N-(3-(2-cyclopropylacetamido)-2,4-difluorophenyl)-5-((1R,3R)-2,2-dichloro-3-(3,4,5-trichlorophenyl)cyclopropane-1-carboxamido)benzamide] was tested, and the pest or weed control at 50 µg/cm2 [1, 7] was 50 to 100%, the YFM [2, 8] was “A (80–100)” and the pest or weed control at 50 µg/cm2 [3, 9] was 50 to 100%.

With O=C(NCCCNC(=O)C(F)(F)C(F)(F)F)c1cc(NC(=O)[C@H]2[C@H](c3cc(Cl)cc(Cl)c3)C2(Cl)Cl)ccc1Cl (relative stereo) [F2097, trans-2-Chloro-5-(2,2-dichloro-3-(3,5-dichlorophenyl)cyclopropane-1-carboxamido)-N-(3-(2,2,3,3,3-pentafluoropropanamido)propyl)benzamide] the pest or weed control at 50 µg/cm2 [1, 10] was 50 to 100%, the YFM rating ([2]; Yellow Fever Mosquito) was “A (80–100)” and the pest or weed control at 50 µg/cm2 [3, 11] was 50 to 100%.

With CC(OC(F)(F)F)C(=O)Nc1c(F)ccc(NC(=O)c2cc(NC(=O)[C@H]3[C@H](c4ccc(F)c(Br)c4)C3(Cl)Cl)ccc2Cl)c1F (stereo partly drawn) [F1781, 5-((1R,3R)-3-(3-Bromo-4-fluorophenyl)-2,2-dichlorocyclopropane-1-carboxamido)-2-chloro-N-(2,4-difluoro-3-(2-(trifluoromethoxy)propanamido)phenyl)benzamide] the pest or weed control at 50 µg/cm2 [1, 10] was 50 to 100%, the YFM rating ([2]; Yellow Fever Mosquito) was “A (80–100)” and the pest or weed control at 50 µg/cm2 [3, 11] was 50 to 100%.

For CC(=O)Nc1ccc(NC(=O)c2cc(NC(=O)[C@H]3[C@H](c4ccc(F)c(Cl)c4)C3(Cl)Cl)cc(Cl)c2C)cc1 (relative stereo) [F1191, trans-N-(4-Acetamidophenyl)-3-chloro-5-(2,2-dichloro-3-(3-chloro-4-fluorophenyl)cyclopropane-1-carboxamido)-2-methylbenzamide], the pest or weed control at 50 µg/cm2 [1, 4] was 50 to 100%, the YFM [2, 5] was “A (80–100)” and the pest or weed control at 50 µg/cm2 [3, 6] was 50 to 100%.

With O=C(Nc1ccc(F)cc1Br)c1cc(NC(=O)[C@H]2[C@H](c3cc(Cl)cc(Cl)c3)C2(Cl)Cl)ccc1Cl (relative stereo) [F1305, trans-N-(2-Bromo-4-fluorophenyl)-2-chloro-5-(2,2-dichloro-3-(3,5-dichlorophenyl)cyclopropane-1-carboxamido)benzamide] the pest or weed control at 50 µg/cm2 [1, 4] was 50 to 100%, the YFM [2, 5] was “A (80–100)” and the pest or weed control at 50 µg/cm2 [3, 6] was 50 to 100%.

With O=C(CCC1CC1)Nc1c(F)ccc(NC(=O)c2cc(NC(=O)[C@H]3[C@H](c4ccc(F)c(C(F)(F)F)c4)C3(Cl)Cl)ccc2Cl)c1F [F1854, 2-Chloro-N-(3-(3-cyclopropylpropanamido)-2,4-difluorophenyl)-5-((1R,3R)-2,2-dichloro-3-(4-fluoro-3-(trifluoromethyl)phenyl)cyclopropane-1-carboxamido)benzamide] the pest or weed control at 50 µg/cm2 [1, 10] was 50 to 100%, the YFM rating ([2]; Yellow Fever Mosquito) was “A (80–100)” and the pest or weed control at 50 µg/cm2 [3, 11] was 50 to 100%.
